From patent US7846973B2, “Chemical process and new crystalline form” (Theravance, Inc., priority 2004, dated 2010)
Where a name gives a salt, the structure may show the parent alone.

Experiment: Relative thermodynamic stability of crystalline forms of compound (Ia) monohydrochloride
Format: physicochemical
Conditions: Form 2 versus Form 1 (form of WO 2004/106279)
Text: Such methods can be used to provide seeds of Form 2 material.

O=CNc1cc([C@@H](O)CNCCc2ccc(NC[C@H](O)c3ccccc3)cc2)ccc1O [Form 2, N-{2-[4-((R)-2-hydroxy-2-phenylethylamino)phenyl]ethyl}-(R)-2-hydroxy-2-(3-formamido-4-hydroxyphenyl)ethylamine monohydrochloride]
thermodynamic stability of Form 2 crystals compared with Form 1 crystals: more thermodynamically stable
